Experimental data published in patent publication US9138659B2, “Compositions, methods, and systems relating to controlled crystallization and/or nucleation of molecular species” (Massachusetts Institute of Technology, priority 2010, dated 2015).
Converted amounts (≈) assume the structure as drawn. “Also recorded” adds a separate entry of the source. Blank lines part the entries; values can stand above or below the compound they belong to.

What was measured:
[1] = Nucleation induction time of ASA / ACM with PEGDA or PEGDA-co-AM microgels in 38/62 ethanol/water; format: physicochemical; details: for average nucleation induction time τ: ACM S = 3.7; for Average nucleation induction time τ (stretched exponential fit) / τ1 (two-exponential fit) / τ2 (two-exponential fit): ACM
Text: Nucleation kinetics of model compounds was investigated by measuring the nucleation induction time probability distribution. Nucleation induction time is generally time elapsed prior to the formation of a detectable amount of the new crystalline phase. It is a useful indicator of the surface nucleation activity because it can be dramatically shortened when the presence of an interface lowers the free energy barrier of nucleation. Due to the stochastic nature of nucleation events, a large number of experiments were performed to obtain the probability distribution of nucleation induction time. To obtain the average induction time τ, statistical analysis on the induction time data was conducted based on the understanding that nucleation follows a Poisson distribution. According to Poisson statistics, the probability for a nucleation event to occur beyond time t is P=exp(−t/τ), which implies that the fraction of vials without nucleation at time t exponentially decays as a function of time, where the scaling factor for time is the average induction time.
For determining the statistical analysis of aspirin nucleation induction time with PEGDA particles of various mesh sizes (particles denoted by Mn), 1.9 mL of 38 mg/ml ASA solution in 38/62 ethanol/water (v/v) with 15 μg/mL PEGDA particles was cooled at a rate of 5° C./min from 35° C. to 15° C. to achieve a supersaturation of 2.1. The solution was stirred at 700 rpm. The onset of nucleation was detected by an IR probe which measures the transmission signal through the solution. A total of 10 vials were cycled for 5-10 times to yield 50-100 nucleation induction time measurements for the statistical analysis.
The nucleation rate, J, is given by J=1/τV, where τ the average induction time (Table 1) and V the volume of solution. For this equation to be valid, the assumption is that the crystal growth rate is much faster than the nucleation rate, which is the case for ASA. […] Other crystallization conditions were kept the same.
[…] The solution was stirred at 700 rpm. The onset of nucleation was detected by an IR probe which measures the transmission signal through the solution. A total of 10 vials were cycled for 5-10 times to yield 50-100 nucleation induction time data for the statistical analysis.
Effect of polymer gels on nucleation induction time statistics: To evaluate the impact of polymer-solute interactions on nucleation kinetics, induction times of ASA and ACM were measured with microgels of a series average mesh sizes before and after chemical modification suspended in respective supersaturated solutions. […] For each system, a large number of experiments (50-100) were conducted to obtain the induction time probability distribution. The nucleation induction time generally follows the Poisson distribution. However, deviations can occur, as observed in this study, when there is more than one type of nucleation sites in a sample, giving rise to multiple Poisson processes with different characteristic time scales.
For samples with PEGMDA microgels, the nucleation induction time distributions reported in previous work can be faithfully described by stretched exponentials (Tables 5 and 6), P=exp[−(t/τ)^β], where P is the probability to observe no crystallization event within time t, τ the average induction time. The stretched exponential exponent β served as a measure for the spread of time scales characterizing the nucleation process, or the distribution of kinetic barriers arisen from the heterogeneity of the system. Such heterogeneity can be attributed to the heterogeneity of the polymer microstructure identified using SANS, which resulted from a distribution of nucleation sites arising from spatial variations in both the mesh size and chemical composition of the hydrogel at nanometer length scales. Note that β varies with the average mesh size of the microgel. […]

[2] = Equilibrium partitioning of ASA / ACM into PEGDA and PEGDA-co-AM gels; format: physicochemical; details: for increase in κ with modified gels: ACM
Procedure: This theory is exemplified by quantifying the partitioning of aspirin between the PEGDA gel phase and 38/62 ethanol/water (v/v), and determining the concentration of aspirin in the hydrogel particles. The partitioning experiments were performed at the same solution concentration and temperature as in the nucleation induction time experiments. In the partitioning experiment, both the concentrations of aspirin and ethanol were measured, as there are three species in the bulk solution, namely aspirin, ethanol and water, all of which partition in the gel phase to a certain degree determined by their relative interaction with the PEGDA polymer matrix.
Composition of aspirin solution in the PEGDA gel phase were compared with the bulk phase. PEGDA gels sufficiently large for convenient handling were synthesized by UV polymerization, following the same formulation as the synthesis of PEGDA particles used in the crystallization study. The PEGDA gels were washed with ethanol and vacuum dried to remove unreacted species. The gel was then immersed in excessive 38 mg/ml aspirin solution in 38/62 ethanol/water (v/v) and allowed sufficient time to reach equilibrium swelling at 15° C. before taken out, pad dried, and put in excessive water. After 5 hours immersed in water, the concentrations of aspirin and ethanol in the aqueous phase were analyzed by UV-Vis spectroscopy and Gas Chromatography, respectively.
In FIG. 10: Partitioning of aspirin vs. acetaminophen in the PEGDA gel. Y axis represents the relative API concentration in the PEGDA, normalized by the bulk concentration. The aspirin partitioning experiment was conducted in 38 mg/ml aspirin solution in 38/62 ethanol/water (v/v) at 15° C. As for acetaminophen, 95 mg/ml acetaminophen solution in 38/62 ethanol/water (v/v) was used and the equilibration temperature was 8° C. In both cases, the experimental conditions were kept the same as used in the nucleation induction time study.
Quantification of polymer-solute interactions: The strength of intermolecular interactions between the PEGDA-co-AM polymer network and the molecule to crystallize was characterized with the solute equilibrium partition coefficient at the same condition as used in the crystallization study. Solute partition coefficient κ, defined as the ratio of solute mass fraction in solution confined in the gel to that in the bulk, is a relevant parameter because it informs the solute concentration in the gel at the crystallization condition, which is an important factor affecting nucleation. […] The PEGDA polymers are comprised of the PEG subchain and the acrylate crosslinkers.
Partition coefficient measurements: Partition coefficients of ASA in PEGDA-co-AM gels from its bulk solution were determined as follows. In brief, a series of gels with varying mesh sizes of approximately 5 mm in diameter and 0.5 mm in thickness were synthesized via UV polymerization following the same formula as used in the microgel synthesis. The residue solvent, porogen and monomer molecules were removed by extensive washing with solvent ethanol and subsequent vacuum drying. The dry gels were then immersed in excessive volume of 38 mg/ml ASA solution in 38/62 (v/v) ethanol/water at 15° C. for overnight.

[3] = Solubility of ASA and ACM; format: physicochemical; details: aqueous with cosolvent or surfactant or cyclodextrin; 38/62 (v/v) ethanol/water mixture at 25° C
[4] = CBZ nucleation induction time and polymorphic outcome with PEGMDA microgels in ethanol; format: physicochemical
Text: Results and Discussion: Monodispersed cubelike PEGMDA microgels (FIG. 27 left), with M ranging from 130 to 700 g/mol were synthesized by Stop-Flow Lithography, The mesh sizes vary from 0.7 to 1.5 nm in solvent ethanol (Table 9), estimated from equilibrium swelling by the Flory-Rehner theory. The accuracy of this method for obtaining mesh sizes has been confirmed with Small-Angle Neutron Scattering in a different solvent. The microgels were utilized for controlling polymorph crystallization by suspending ˜10 μg of microgels per 1 ml solution by stiffing. Such a low microgel concentration may be sufficient to effect drastic change in the crystallization behavior (discussed later), underscoring the effectiveness of polymer microgels in controlling crystallization. In all crystallization experiments, supersaturation of the solution was generated by cooling instead of solvent evaporation, despite its popularity in numerous polymorph studies, to yield better control over the crystallization process.
Occasionally, pure Form III was also obtained from bulk experiments. […] However, such polymorph selectivity could not be attained using microgels with M<400 g/mol (˜100 trials) where the polymorphic outcome was quite similar to that of the bulk samples (Table 9), only with a decreased mass fraction of Form I in the mixture obtained (FIG. 28 discussed later) and a lower frequency of occurrence of Form III.
Average mesh size ξ was estimated from equilibrium swelling experiments in solvent ethanol. Induction time distribution data were fitted with stretched exponentials via nonlinear least square regression: P=exp[−(t/τ)^β], where P is the probability to observe no crystallization event within time t.
Induction time was measured by monitoring IR transmission signal passing through a solution in controlled temperature environment and stirring condition. Once nucleation occurred, the solution became turbid in seconds indicated by a sharp drop of IR signal, due to secondary nucleation and rapid crystal growth. The statistical nature of nucleation necessitated a large number of experiments (50-100) for obtaining the distribution of induction times, from which the average induction time τ was regressed with a stretched-exponential model, P(t)=exp[−(t/τ)^β], where P is the probability to observe no crystallization event within time t. In brief, the stretched-exponential model modified the single exponential model derived from the Poisson statistics, P(t)=exp (−t/τ) by adding an exponent β to the dimensionless induction time t/τ to capture the spread in characteristic time scales caused by a distribution of nucleation active sites present in the system.

[5] = Partition coefficients of CBZ and ROY in PEGMDA microgels from ethanol solutions; format: physicochemical; details: ethanol solution
[6] = CBZ anhydrous forms; ambient conditions; cited from earlier work
[7] = PEGDA-co-AM microgels M 130 g/mol
[8] = PEGDA-co-AM microgels M 200 g/mol
[9] = PEGDA-co-AM microgels M 400 g/mol
[10] = CBZ, Bulk ethanol solution, S=1.63, T=25° C
[11] = CBZ, PEGMDA microgels M 130 g/mol
[12] = CBZ, PEGMDA microgels M 200 g/mol

average nucleation induction time τ ([1]; Bulk (no particles), 38/62 ethanol/water): 6500 ± 1600 min | average nucleation induction time τ ([1]; PEGDA microparticles Mn 130 g/mol): 920 ± 70 min | average nucleation induction time τ ([1]; PEGDA microparticles Mn 200 g/mol): 540 ± 20 min | average nucleation induction time τ ([1]; PEGDA microparticles Mn 400 g/mol): 1720 ± 150 min | average nucleation induction time τ ([1]; PEGDA microparticles Mn 700 g/mol): 6500 ± 1600 min | Average nucleation induction time τ (stretched exponential fit) ([1]; Bulk): 37000 min | Average nucleation induction time τ (stretched exponential fit) ([1]; PEGDA microgels M 130 g/mol): 1600 min | Average nucleation induction time τ (stretched exponential fit) ([1]; PEGDA microgels M 200 g/mol): 480 min | Average nucleation induction time τ (stretched exponential fit) ([1]; PEGDA microgels M 400 g/mol): 5300 min | Average nucleation induction time τ (stretched exponential fit) ([1]; PEGDA microgels M 700 g/mol): 37000 min | τ1 (two-exponential fit) [1, 7]: 55 min | τ2 (two-exponential fit) [1, 7]: 1360 min | τ1 (two-exponential fit) [1, 8]: 88 min | τ2 (two-exponential fit) [1, 8]: 12400 min | τ1 (two-exponential fit) [1, 9]: 70 min | τ2 (two-exponential fit) [1, 9]: 35000 min | promotion of nucleation kinetics when AM co-monomer was introduced into the PEGDA matrix ([1]; PEGDA-co-AM vs PEGDA microgels): up to two orders of magnitude | best enhancement in nucleation kinetics by addition of PEGDA particles ([1]; vs bulk, Table 2): about ten-fold | increase in κ with modified gels ([2]; Mn=130 g/mol): 35% | increase in κ with modified gels ([2]; Mn=700 g/mol): 14% | solubility [3]: 90 mg/mL (≈ 595 mM)
Structure (SMILES): CC(=O)Nc1ccc(O)cc1 [acetaminophen]
acetaminophen concentration in PEGDA particles relative to bulk concentration ([2]; 95 mg/ml in 38/62 ethanol/water, 8° C, FIG. 10): approximately twice the bulk concentration

average nucleation induction time τ [4, 10]: 427 ± 13 min | Polymorph [4, 11]: II & I | average nucleation induction time τ [4, 11]: 222 ± 5 min | Polymorph [4, 12]: II & I | average nucleation induction time τ [4, 12]: 174 ± 11 min | average nucleation induction time τ ([4]; CBZ, PEGMDA microgels M 400 g/mol): 10.9 ± 0.3 min | average nucleation induction time τ ([4]; CBZ, PEGMDA microgels M 575 g/mol): 33 ± 1 min | average nucleation induction time τ ([4]; CBZ, PEGMDA microgels M 700 g/mol): 49 ± 1 min | Polymorph crystallized ([4]; CBZ, PEGMDA microgels with M≧400 g/mol, ~250 trials): pure Form II | optimum mesh size for CBZ nucleation ([4]; PEGMDA microgels): 1.1 nm | Partition coefficient κ (solute mass fraction in gel solution / bulk) ([5]; PEGMDA microgels M 130 g/mol): 3.0 ± 0.4 | Partition coefficient κ (solute mass fraction in gel solution / bulk) ([5]; PEGMDA microgels M 200 g/mol): 2.7 ± 0.1 | Partition coefficient κ (solute mass fraction in gel solution / bulk) ([5]; PEGMDA microgels M 400 g/mol): 3.8 ± 0.2 | Partition coefficient κ (solute mass fraction in gel solution / bulk) ([5]; PEGMDA microgels M 575 g/mol): 3.8 ± 0.04 | Partition coefficient κ (solute mass fraction in gel solution / bulk) ([5]; PEGMDA microgels M 700 g/mol): 3.7 ± 0.1
Structure (SMILES): NC(=O)N1c2ccccc2C=Cc2ccccc21 [CBZ, carbamazepine]
Polymorph [4, 10]: concomitant crystallization of Forms I and II; also recorded: II & I, occasionally | energy separation between form III and II [6]: less than 0.7 kcal/mol
